Reference: US11253526B2, “Nanostructured formulations for the delivery of silibinin and other active ingredients for treating ocular diseases” (DISTRETTO TECNOLOGICO SICILIA MICRO E NANO SISTEMI …, priority 2014, dated 2022)
Values joined by “and” are separate entries in the source; they are usually repeats but may differ in a detail not shown here. Equal values may be shown once.

Columns and labels:
ARPE-19 cells [1] = experiment: LDH release, 20 h pretreatment then 50 μM FeSO4 insult; type: cell-based
Method: (§1) Then, the effects of the conjugated and empty system were tested using the compound FeSO4 as oxidative insult, with changes in the cellular redox status. Over 24 hours of incubation, the cells are pre-treated for 20 h and then exposed to insult with 50 μM FeSO4 for three hours [“Pretreatment” 20 h drug+3 h insult]. The viability test conducted to evaluate the toxicity and the ability of protection from damage of the carrier in question is to assess the release of LDH in the culture medium. […] In subsequent experiments, the effects of post-treatment with calixarene based compounds were tested. Therefore, cells were treated with 50 μM FeSO4 for 5 hours and incubated for 20 hours with the various compounds.

ARPE-19 cells [2] = experiment: LDH release, 50 μM FeSO4 for 5 hours then 20 h post-treatment; type: cell-based; settings: then 20 hours with compound
Method: as §1

cathepsin D = experiment: Western blot of cathepsin D after FeSO4 insult and post-treatment; type: cell-based
Text: Cathepsin D is an intracellular aspartyl protease, synthesized in the endoplasmic reticulum as pre-pro-enzyme that is processed up to generate active fragments. According to the cellular environment in which it resides, it can induce or inhibit apoptosis through different mechanisms. The 48 kDa fragment is an active intermediate form from which two additional active fragments are generated; therefore, its reduction is associated with the activation of the proteolytic process, vice versa its increase is indicative of an inhibition of apoptosis. In the presence of oxidative stress, the activation of cathepsin D may activate caspase 8 which in turn activates caspase 3, leading to cell death (Regulatory role of cathepsin D in apoptosis, A. Minarowska et al., (2007) Folia Histochemica et Cytobiologica) (Caspase-8-mediated apoptosis induced by oxidative stress is independent of the intrinsic pathway and dependent on cathepsins H. K. Baumgartner et al., (2007) Am J Physiol Gastrointest Liver Physiol.).

PARP-1 protein = experiment: Western blotting of PARP-1 after H2O2 and post-treatment; type: cell-based; settings: samples treated with H2O2, post-treatment
Method: Lysates of retinal cells exposed to post-treatment with the INUC8PEG system, empty or conjugated with silibinin, were analyzed by western blotting for the expression of the PARP-1 protein, a poly (ADP-ribose) polymerase of 116 kDa involved in DNA repair in response to environmental stress (Calcium Overload Is A Critical Step In Programmed Necrosis Of Arpe-19 Cells Induced By High-Concentration H2O2 Guang-Yu Li et al., (2010) Biomedical And Environmental Sciences). In vivo and in vitro, PARP-1 is processed by Caspase 3 and Caspase 7 with the formation of a 24 kDa DNA-binding domain and an 89 kDa catalytic domain that participates in the apoptosis (Importance of Poly (ADP-ribose) Polymerase and Its Cleavage in Apoptosis F. J Oliver et al., (1998) J. Biol. Chem.).

[3] = cited from earlier work
[4] = tested on: Uveitis induced in Lewis rats; experiment: Uveitis model induced by LPS endotoxin, topical administration; type: in vivo; settings: 16 and 72 hours after LPS injection
Method: With the aim of verifying the effectiveness of the calixarene system loaded with the active ingredient to the eye site of interest, an experiment was conducted in vivo with an Uveitis model. Uveitis was induced in 160-180 g Lewis rats by single subcutaneous injection in the hind paw of 200 ìg of the LPS endotoxin from Salmonella Minnesota diluted in 0.2 mL PBS, pH 7.4. The control group received only 0.2 mL of PBS in the hind paw. […] The eyes were enucleated for histological and immunohistochemical analysis. The aqueous humor was also taken for protein dosing.

[5] = tested on: inducible nitric oxide synthase (iNOS); experiment: Western blot, iNOS level in LPS-stimulated J774 cells; type: cell-based; settings: LPS 10 μg/mL for 24 hours, pre-treatment
Method: (§2) In particular, J774 cells were stimulated with lipopolysaccharide (LPS) at a concentration of 10 μg/mL for 24 hours, stimulation with LPS induces the activation of inflammatory processes such as NFκB nuclear translocation and cytokine production, if not also release of nitrites and nitrosative stress. The cell viability was then evaluated following stimulation with LPS (10 μg/mL for 24 hours) and 2-hour pretreatment of the delivery systems being studied at the different concentrations. […] The anti-inflammatory activity of the delivery systems was then evaluated through the Western Blot analysis. […] The NFκB activation involves the production of proteins and inflammatory mediators such as cyclooxygenase 2 (COX-2) and inducible nitric oxide synthase (iNOS) and consequent increase in the production of nitrites.

[6] = Degradation of curcumin in PBS and serum-free medium; type: physicochemical
cyclooxygenase 2 (COX-2) = experiment: Western blot, COX-2 level in LPS-stimulated J774 cells; type: cell-based; settings: LPS 10 μg/mL for 24 hours, pre-treatment
Method: as §2

[7] = Average hydrodynamic diameter and polydispersity index by DLS / photo-correlation spectroscopy; type: physicochemical; settings: DLS in PBS, pH 7.4; calixarene nanoaggregates
Method: The average diameter and the polydispersity index (PDI) of the SLN-A systems prepared were determined by photo-correlation spectroscopy (PCS) using a Zetasizer Nano ZSP (Malvern Instrument).
The average diameter and the polydispersity index (PDI) of the NLC-B systems coated with INU-EDA and chitosan prepared were determined by photo-correlation spectroscopy (PCS) using a Zetasizer Nano ZSP (Malvern Instrument).
(§3) The size distribution of micelles was determined through dynamic light scattering measurements using the Malvern Zetasizer Nano ZS. […] The aqueous solutions of micelles (2 mg/mL) were analyzed after filtration through cellulose membrane filters with 5 μm cut off. The average hydrodynamic diameter and the polydispersity index (PDI) were obtained using cumulative analyses of the correlation function. The zeta potential (mV) was calculated by the electrophoretic mobility and using the Smoluchowsky relation, assuming that K·a>>1 (where K and a are the Debye-Hückel parameter and the particle radius, respectively).
(§4) The average diameter, polydispersity index (PDI) and zeta potential of calixarene nanoparticles loaded and not with silibinin were measured using a Zetasizer Nano ZS-90 (Malvern Instrument), the reading was made at an angle of 90° with respect to the incident ray and analyzed in triplicate.

ARPE-19 retinal cells = experiment: Biocompatibility / toxicity on ARPE-19 retinal cells; type: cell-based
Method: as §1
(§5) The colloidal solutions of calixarene 1, calixarene loaded with active ingredient and active ingredient alone were tested for cytotoxicity: SIRC corneal cells (FIG. 11), J774 macrophages (FIG. 12) and ARPE retinal cells.

J774 macrophages = experiment: Cytotoxicity on J774 macrophages; type: cell-based
Method: as §5

SIRC corneal cells = experiment: Cytotoxicity on SIRC corneal cells; type: cell-based; settings: SIRC corneal (epithelial) cells
Method: as §5

[8] = Zeta potential measurement; type: physicochemical; settings: in PBS, pH 7.4; calixarene nanoaggregates
Method: The zeta potential was measured according to the principles of the laser doppler velocimetry and of the light scattering analysis (M3-PALS technique) using a Zetasizer Nano ZSP (Malvern) with a He—Ne laser, power=4.0 mW, wavelength=633 nm.
as §3, §4

J774 cells = experiment: Viability / anti-inflammatory activity in J774 cells stimulated with LPS; type: cell-based
Method: as §2

[9] = 20 h incubation, cells not exposed to FeSO4
[10] = pre-treated 20 h, then FeSO4 (50 μM)

| Molecule | release of LDH (ARPE-19 cells [1]; [9]) | release of LDH (ARPE-19 cells [1]; [10]) | protection against insult (LDH release) (ARPE-19 cells [2]) | expression levels of cathepsin D (48 kDa band) (cathepsin D) | ocular inflammation / histologic damage [4] | protein levels in the aqueous humor [4] | levels of iNOS [5] | levels of COX-2 (cyclooxygenase 2 (COX-2)) | further results |
| --- | --- | --- | --- | --- | --- | --- | --- | --- | --- |
| Silibinin [reference compound] | reduces the release of LDH | an effect not observed | individually able to protect from the redox status alteration | increases the expression levels of cathepsin D | decreased but not significant ocular inflammation | a trend but not significant | – | – | inhibition of apoptosis induced by oxidative damage (PARP-1 protein): reduces the apoptotic process, however with less efficiency than the conjugated carrier; solubility in water [3]: 430 µg/mL |
| COc1cc(/C=C/C(=O)CC(=O)/C=C/c2ccc(O)c(OC)c2)ccc1O [curcumin, diferuloylmethane] | – | – | – | – | significantly decreased the histologic damage | most effectively determined the reduction of proteins | reduces significantly and in a dose-dependent manner | reduces significantly and in a dose-dependent manner | degradation ([6]; in 30 min, 0.1 M PBS and serum-free medium): 80-90% and 90% |
| CCCCCCCCCCCCOc1c2cc(C[N+](C)(C)CCO)cc1Cc1cc(C[N+](C)(C)CCO)cc(c1OCCCCCCCCCCCC)Cc1cc(C[N+](C)(C)CCO)cc(c1OCCCCCCCCCCCC)Cc1cc(C[N+](C)(C)CCO)cc(c1OCCCCCCCCCCCC)C2 [compound 1] | do not significantly change the release of LDH | an effect not observed | individually able to protect from the redox status alteration | increases the expression levels of cathepsin D | the degree of inflammation was not reduced | did not result in a reduction in the protein levels | reduces significantly and in a dose-dependent manner | reduces significantly and in a dose-dependent manner | PDI [7]: 0.29; Z-average [7]: 44.3 nm; biocompatibility (ARPE-19 retinal cells; ARPE-19 / ARPE retinal cells): good biocompatibility; toxicity (ARPE-19 retinal cells; concentrations 0.01-1 μM, incubated for 20 hours): caused no toxicity; biocompatibility (J774 macrophages): good biocompatibility; biocompatibility (SIRC corneal cells): good biocompatibility; protective effect towards curcumin ([6]; PBS as a solvent): protects curcumin; Potential ζ [8]: 24 mV; cell viability following stimulation with LPS (J774 cells; LPS 10 μg/mL for 24 hours, 2-hour pretreatment): able to restore the cell viability; anti-inflammatory activity, rank order (J774 cells; macrophages subjected to inflammatory stress with LPS): calixarene loaded with curcumin>>calixarene>>curcumin alone |
